Assay results published in US11053204B2, “Pyrimidinyloxy benzene derivatives as herbicides” (FMC Corporation, priority 2015, dated 2021).

Legend:
Format in all cases: in vivo
[1] = system: Italian ryegrass (Lolium multiflorum); experiment: Test A postemergence, visual injury rating; details: 0 is no effect, 100 is complete control
Summary of the method: (§1)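 Compounds in non-phytotoxic solvent with surfactant applied as soil spray preemergence, or postemergence to plants 2-10 cm at one- to two-leaf stage, in loam/sand. After approximately 10 days in greenhouse, injury rated visually versus untreated controls, 0 (no effect) to 100 (complete control).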

[2] = system: barnyardgrass (Echinochloa crus-galli); experiment: Test A postemergence, visual injury rating; details: 0 is no effect, 100 is complete control
Summary of the method: as §1

[3] = system: blackgrass (Alopecurus myosuroides); experiment: Test A postemergence, visual injury rating; details: 0 is no effect, 100 is complete control
Summary of the method: as §1

corn (Zea mays) = experiment: Test A postemergence, visual injury rating; details: 0 is no effect, 100 is complete control
Summary of the method: as §1

[4] = system: galium (catchweed bedstraw, Galium aparine); experiment: Test A postemergence, visual injury rating; details: 0 is no effect, 100 is complete control
Summary of the method: as §1

[5] = system: giant foxtail (Setaria faberii); experiment: Test A postemergence, visual injury rating; details: 0 is no effect, 100 is complete control
Summary of the method: as §1

kochia (Kochia scoparia) = experiment: Test A postemergence, visual injury rating; details: 0 is no effect, 100 is complete control
Summary of the method: as §1

[6] = system: pigweed (Amaranthus retroflexus); experiment: Test A postemergence, visual injury rating; details: 0 is no effect, 100 is complete control
Summary of the method: as §1

[7] = system: ragweed (common ragweed, Ambrosia elatior); experiment: Test A postemergence, visual injury rating; details: 0 is no effect, 100 is complete control
Summary of the method: as §1

[8] = system: wheat (Triticum aestivum); experiment: Test A postemergence, visual injury rating; details: 0 is no effect, 100 is complete control
Summary of the method: as §1

[9] = system: barnyardgrass (Echinochloa crus-galli); experiment: Test B flooded paddy test, plant response rating; details: 250 g ai/ha, Flood, scale of 0 to 100 where 0 is no effect and 100 is complete control, 13 to 15 days
Summary of the method: (§2)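 Greenhouse pots flooded to 3 cm above soil at time of treatment received compound via the water, which stayed at that level.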

[10] = system: ducksalad (Heteranthera limosa); experiment: Test B flooded paddy test, plant response rating; details: 250 g ai/ha, Flood, scale of 0 to 100 where 0 is no effect and 100 is complete control, 13 to 15 days
Summary of the method: as §2

rice (Oryza sativa) = experiment: Test B flooded paddy test, plant response rating; details: 250 g ai/ha, Flood, scale of 0 to 100 where 0 is no effect and 100 is complete control, 13 to 15 days
Summary of the method: as §2

[11] = system: sedge, umbrella (small-flower umbrella sedge, Cyperus difformis); experiment: Test B flooded paddy test, plant response rating; details: 250 g ai/ha, Flood, scale of 0 to 100 where 0 is no effect and 100 is complete control, 13 to 15 days
Summary of the method: as §2

[12] = system: galium (catchweed bedstraw, Galium aparine); experiment: Test C postemergence, plant response rating
Summary of the method: (§3)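 After sowing in loam–sand blend or silt loam, pots were sprayed preemergence; separately grown 1- to 4-leaf plants were sprayed postemergence. Following 13 to 15 d under greenhouse conditions, injury was rated visually on a 0 to 100 scale.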

[13] = system: ragweed (common ragweed, Ambrosia elatior); experiment: Test C postemergence, plant response rating
Summary of the method: as §3

[14] = system: velvetleaf (Abutilon theophrasti); experiment: Test C postemergence, plant response rating
Summary of the method: as §3

[15] = system: waterhemp (common waterhemp, Amaranthus rudis); experiment: Test C postemergence, plant response rating; details: for Plant response rating, Waterhemp: scale 0 to 100; for Waterhemp plant response rating: scale 0 to 100 (0 no effect, 100 complete control)
Summary of the method: as §3

[16] = 62 g ai/ha, scale 0 to 100 (0 no effect, 100 complete control)
[17] = 125 g ai/ha, scale 0 to 100 (0 no effect, 100 complete control)

## N#CCCOC(=O)c1c(Br)cccc1Oc1ncc(Cl)cn1 [Compound 7]
[1]; 125 g ai/ha
  Ryegrass, Italian plant response rating (0 to 100 scale): 20
[1]; 500 g ai/ha
  Ryegrass, Italian plant response rating (0 to 100 scale): 70
[2]; 125 g ai/ha
  Barnyardgrass plant response rating (0 to 100 scale): 30
[2]; 500 g ai/ha
  Barnyardgrass plant response rating (0 to 100 scale): 90
[3]; 125 g ai/ha
  Blackgrass plant response rating (0 to 100 scale): 30
[3]; 500 g ai/ha
  Blackgrass plant response rating (0 to 100 scale): 80
Corn (Zea mays); 125 g ai/ha
  Corn plant response rating (0 to 100 scale): 10
Corn (Zea mays); 500 g ai/ha
  Corn plant response rating (0 to 100 scale): 70
[4]; 125 g ai/ha
  Galium plant response rating (0 to 100 scale): 100
[4]; 500 g ai/ha
  Galium plant response rating (0 to 100 scale): 100
[5]; 125 g ai/ha
  Foxtail, Giant plant response rating (0 to 100 scale): 50
[5]; 500 g ai/ha
  Foxtail, Giant plant response rating (0 to 100 scale): 100
Kochia (Kochia scoparia); 125 g ai/ha
  Kochia plant response rating (0 to 100 scale): 100
Kochia (Kochia scoparia); 500 g ai/ha
  Kochia plant response rating (0 to 100 scale): 100
[6]; 125 g ai/ha
  Pigweed plant response rating (0 to 100 scale): 100
[6]; 500 g ai/ha
  Pigweed plant response rating (0 to 100 scale): 100
[7]; 125 g ai/ha
  Ragweed plant response rating (0 to 100 scale): 40
[7]; 500 g ai/ha
  Ragweed plant response rating (0 to 100 scale): 90
[8]; 125 g ai/ha
  Wheat plant response rating (0 to 100 scale): 0
[8]; 500 g ai/ha
  Wheat plant response rating (0 to 100 scale): 20
[9]
  Plant response rating, Barnyardgrass: 0
[10]
  Plant response rating, Ducksalad: 0
Rice (Oryza sativa)
  Plant response rating, Rice: 0
[11]
  Plant response rating, Sedge, Umbrella: 0
[12]; 16 g ai/ha, scale 0 to 100
  Plant response rating, Galium: 0
[12]; 31 g ai/ha, scale 0 to 100
  Plant response rating, Galium: 0
[12]; [16]
  Galium plant response rating: 10
[12]; [17]
  Galium plant response rating: 40
[13]; 16 g ai/ha, scale 0 to 100
  Plant response rating, Ragweed: 10
[13]; 31 g ai/ha, scale 0 to 100
  Plant response rating, Ragweed: 20
[13]; [16]
  Ragweed plant response rating: 20
[13]; [17]
  Ragweed plant response rating: 25
[14]; 16 g ai/ha, scale 0 to 100
  Plant response rating, Velvetleaf: 5
[14]; 31 g ai/ha, scale 0 to 100
  Plant response rating, Velvetleaf: 20
[14]; [16]
  Velvetleaf plant response rating: 35
[14]; [17]
  Velvetleaf plant response rating: 40
[15]; 16 g ai/ha
  Plant response rating, Waterhemp: 35
[15]; 31 g ai/ha
  Plant response rating, Waterhemp: 70
[15]; 62 g ai/ha
  Waterhemp plant response rating: 60
[15]; 125 g ai/ha
  Waterhemp plant response rating: 65

## C=CCOC(=O)c1c(Br)cccc1Oc1ncc(Cl)cn1 [Compound 22, 2-propen-1-yl 2-bromo-6-[(5-chloro-2-pyrimidinyl)oxy]benzoate]
[1]; Lolium multiflorum, post-emergence, 240 h, 125 g ai/ha, read-out: Ryegrass, Italian plant response rating (0 to 100 scale)
  pest or weed control at 125 g/ha: 0%
[1]; Lolium multiflorum, post-emergence, 240 h, 500 g ai/ha, read-out: Ryegrass, Italian plant response rating (0 to 100 scale)
  pest or weed control at 500 g/ha: 60%
[2]; Echinochloa crus-galli, post-emergence, 240 h, 125 g ai/ha, read-out: Barnyardgrass plant response rating (0 to 100 scale)
  pest or weed control at 125 g/ha: 60%
[2]; Echinochloa crus-galli, post-emergence, 240 h, 500 g ai/ha, read-out: Barnyardgrass plant response rating (0 to 100 scale)
  pest or weed control at 500 g/ha: 100%
[3]; Alopecurus myosuroides, post-emergence, 240 h, 125 g ai/ha, read-out: Blackgrass plant response rating (0 to 100 scale)
  pest or weed control at 125 g/ha: 60%
[3]; Alopecurus myosuroides, post-emergence, 240 h, 500 g ai/ha, read-out: Blackgrass plant response rating (0 to 100 scale)
  pest or weed control at 500 g/ha: 90%
Corn (Zea mays); Zea mays, post-emergence, 240 h, 125 g ai/ha, read-out: Corn plant response rating (0 to 100 scale)
  plant injury at 125 g/ha: 30%
Corn (Zea mays); Zea mays, post-emergence, 240 h, 500 g ai/ha, read-out: Corn plant response rating (0 to 100 scale)
  plant injury at 500 g/ha: 50%
[4]; Galium, post-emergence, 240 h, 125 g ai/ha, read-out: Galium plant response rating (0 to 100 scale)
  pest or weed control at 125 g/ha: 30%
[4]; Galium, post-emergence, 240 h, 500 g ai/ha, read-out: Galium plant response rating (0 to 100 scale)
  pest or weed control at 500 g/ha: 90%
[5]; Setaria faberi, post-emergence, 240 h, 125 g ai/ha, read-out: Foxtail, Giant plant response rating (0 to 100 scale)
  pest or weed control at 125 g/ha: 80%
[5]; Setaria faberi, post-emergence, 240 h, 500 g ai/ha, read-out: Foxtail, Giant plant response rating (0 to 100 scale)
  pest or weed control at 500 g/ha: 100%
Kochia (Kochia scoparia); Bassia scoparia, post-emergence, 240 h, 125 g ai/ha, read-out: Kochia plant response rating (0 to 100 scale)
  pest or weed control at 125 g/ha: 90%
Kochia (Kochia scoparia); Bassia scoparia, post-emergence, 240 h, 500 g ai/ha, read-out: Kochia plant response rating (0 to 100 scale)
  pest or weed control at 500 g/ha: 100%
[6]; Amaranthus retroflexus, post-emergence, 240 h, 125 g ai/ha, read-out: Pigweed plant response rating (0 to 100 scale)
  pest or weed control at 125 g/ha: 100%
[6]; Amaranthus retroflexus, post-emergence, 240 h, 500 g ai/ha, read-out: Pigweed plant response rating (0 to 100 scale)
  pest or weed control at 500 g/ha: 100%
[7]; Ambrosia artemisiifolia, post-emergence, 240 h, 125 g ai/ha, read-out: Ragweed plant response rating (0 to 100 scale)
  pest or weed control at 125 g/ha: 0%
[7]; Ambrosia artemisiifolia, post-emergence, 240 h, 500 g ai/ha, read-out: Ragweed plant response rating (0 to 100 scale)
  pest or weed control at 500 g/ha: 30%
[8]; Triticum aestivum, post-emergence, 240 h, 125 g ai/ha, read-out: Wheat plant response rating (0 to 100 scale)
  plant injury at 125 g/ha: 0%
[8]; Triticum aestivum, post-emergence, 240 h, 500 g ai/ha, read-out: Wheat plant response rating (0 to 100 scale)
  plant injury at 500 g/ha: 30%
[9]; Echinochloa crus-galli, 312 h
  pest or weed control at 250 g/ha: 0%
[10]; Heteranthera limosa, 312 h
  pest or weed control at 250 g/ha: 40%
Rice (Oryza sativa); Oryza sativa, 312 h
  plant injury at 250 g/ha: 0%
[11]; Cyperus difformis, 312 h
  pest or weed control at 250 g/ha: 50%
[12]; Galium, post-emergence, 16 g ai/ha, scale 0 to 100
  pest or weed control at 16 g/ha: 10%
[12]; Galium, post-emergence, 31 g ai/ha, scale 0 to 100
  pest or weed control at 31 g/ha: 25%
[12]; Galium, post-emergence, 62 g ai/ha, scale 0 to 100 (0 no effect, 100 complete control)
  pest or weed control at 62 g/ha: 60%
[12]; Galium, post-emergence, 125 g ai/ha, scale 0 to 100 (0 no effect, 100 complete control)
  pest or weed control at 125 g/ha: 70%
[13]; Ambrosia artemisiifolia, post-emergence, 16 g ai/ha, scale 0 to 100
  pest or weed control at 16 g/ha: 5%
[13]; Ambrosia artemisiifolia, post-emergence, 31 g ai/ha, scale 0 to 100
  pest or weed control at 31 g/ha: 35%
[13]; Ambrosia artemisiifolia, post-emergence, 62 g ai/ha, scale 0 to 100 (0 no effect, 100 complete control)
  pest or weed control at 62 g/ha: 50%
[13]; Ambrosia artemisiifolia, post-emergence, 125 g ai/ha, scale 0 to 100 (0 no effect, 100 complete control)
  pest or weed control at 125 g/ha: 50%
[14]; Abutilon theophrasti, post-emergence, 16 g ai/ha, scale 0 to 100
  pest or weed control at 16 g/ha: 50%
[14]; Abutilon theophrasti, post-emergence, 31 g ai/ha, scale 0 to 100
  pest or weed control at 31 g/ha: 40%
[14]; Abutilon theophrasti, post-emergence, 62 g ai/ha, scale 0 to 100 (0 no effect, 100 complete control), read-out: Velvetleaf plant response rating
  pest or weed control at 62 g/ha: 55%
[14]; Abutilon theophrasti, post-emergence, 125 g ai/ha, scale 0 to 100 (0 no effect, 100 complete control)
  pest or weed control at 125 g/ha: 85%
[15]; 16 g ai/ha
  Plant response rating, Waterhemp: 75
[15]; 31 g ai/ha
  Plant response rating, Waterhemp: 75
[15]; 62 g ai/ha
  Waterhemp plant response rating: 85
[15]; 125 g ai/ha
  Waterhemp plant response rating: 80
